Data on 3 molecules can be found in patent US20130040845A1, “METHOD FOR SCREENING RECEPTORS/LIGANDS INTERACTIONS” (IMMUNE DISEASE INSTITUTE, INC., priority 2010, published 2013).

In assay [1] the target is T1, RARβ receptor (Homo sapiens, UniProt P10826).
T1 sequence (P10826 1-455): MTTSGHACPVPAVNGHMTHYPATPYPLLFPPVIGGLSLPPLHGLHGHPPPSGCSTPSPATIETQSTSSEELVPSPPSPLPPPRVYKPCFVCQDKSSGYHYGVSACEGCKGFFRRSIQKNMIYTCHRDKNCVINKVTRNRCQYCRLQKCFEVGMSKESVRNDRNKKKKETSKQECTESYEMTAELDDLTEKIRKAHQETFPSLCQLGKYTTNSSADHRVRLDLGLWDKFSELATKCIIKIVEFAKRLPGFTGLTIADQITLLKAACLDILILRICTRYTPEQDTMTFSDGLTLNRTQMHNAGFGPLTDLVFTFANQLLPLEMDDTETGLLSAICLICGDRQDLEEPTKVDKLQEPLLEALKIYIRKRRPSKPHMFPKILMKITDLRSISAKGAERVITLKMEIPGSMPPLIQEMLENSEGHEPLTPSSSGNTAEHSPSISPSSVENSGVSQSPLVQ
Particulars: cited from earlier work.

Assay [2] concerns the target T2, RARγ receptor (Homo sapiens, UniProt P13631).
T2 sequence (P13631 1-454): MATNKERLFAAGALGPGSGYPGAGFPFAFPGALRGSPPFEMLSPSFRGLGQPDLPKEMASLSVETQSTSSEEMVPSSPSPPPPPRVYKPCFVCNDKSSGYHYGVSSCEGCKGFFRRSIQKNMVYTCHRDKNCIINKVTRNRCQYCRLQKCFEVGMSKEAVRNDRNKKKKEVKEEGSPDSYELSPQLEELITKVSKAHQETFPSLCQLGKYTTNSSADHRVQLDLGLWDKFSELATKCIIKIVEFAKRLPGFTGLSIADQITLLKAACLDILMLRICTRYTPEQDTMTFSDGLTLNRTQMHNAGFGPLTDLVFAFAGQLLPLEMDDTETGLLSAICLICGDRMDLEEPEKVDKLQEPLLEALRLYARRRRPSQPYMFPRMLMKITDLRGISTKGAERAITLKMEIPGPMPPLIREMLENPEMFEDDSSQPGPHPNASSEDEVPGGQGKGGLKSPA
Particulars: cited from earlier work.

In assay [3] the target is T3, RARα receptor (Homo sapiens, UniProt P10276).
T3 sequence (P10276 1-462): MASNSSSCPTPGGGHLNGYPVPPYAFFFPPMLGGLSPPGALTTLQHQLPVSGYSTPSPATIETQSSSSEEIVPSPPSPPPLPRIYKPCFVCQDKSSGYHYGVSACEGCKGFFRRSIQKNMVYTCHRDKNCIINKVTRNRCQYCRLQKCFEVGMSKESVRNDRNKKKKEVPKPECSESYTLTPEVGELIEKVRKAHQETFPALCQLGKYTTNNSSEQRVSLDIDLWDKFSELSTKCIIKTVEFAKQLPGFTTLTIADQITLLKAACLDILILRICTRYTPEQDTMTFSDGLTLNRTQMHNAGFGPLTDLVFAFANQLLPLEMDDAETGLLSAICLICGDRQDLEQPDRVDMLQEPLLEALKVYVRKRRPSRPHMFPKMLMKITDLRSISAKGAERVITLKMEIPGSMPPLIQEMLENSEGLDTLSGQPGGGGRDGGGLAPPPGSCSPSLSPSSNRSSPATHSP
Particulars: cited from earlier work.

Assay [4] addresses T4, VWF A1 domain/GPIbα interaction (Homo sapiens, UniProt P04275+P07359).
T4 construct: human VWF A1 domain (Ile1262 to Pro1466 with pre-pro-VWF numbering); human platelet GPIbα (His1 to Arg290) were PCR-amplified; made in house; host or cells: HEK293T
Nature of the assay: Single-molecule optical tweezer force-extension (pulling) assay on covalently tethered A1-GPIbα chimeric fusion polypeptide. Particulars: presence vs absence of activator, fixed pulling rate (FIG. 5D-5F). It is filed as binding. The text has this: In the example described herein, the inventors tethered this single polypeptide to the solid surfaces of two different microspheres using double-stranded DNA (dsDNA) handles. One end of the chimeric polypeptide was tethered to a first dsDNA handle and the other end of the polypeptide was tethered to a second dsDNA handle. The polypeptide was coupled to the dsDNA handles via S—S-bond or disulfide bridges. The free ends of the dsDNA were then linked to digoxigenin or biotin (see FIGS. 3A, 4B & 4C, 10). The dsDNA coupled A1/GPIbα polypeptide was then mixed with beads that were coated with either anti-digoxigenin or streptavidin. The inventors then manipulated the beads with a pipette and a focus laser beam from an optical tweezer to stretch out or extend the A1/GPIbα polypeptide in order to study the minute forces, in pico Newtons (pN), required to dissociate the VWF A1 domain/GPIbα interaction. […] In addition, the inventors measured the extensions of the VWF A1 domain/GPIbα polypeptide that are required to keep the extension force constant. […]
In the example, the inventors monitored the forces applied to the A1/GPIbα polypeptide that is required to extend or stretch out the polypeptide from a ligand-bound state to a ligand-unbonud state with an optical tweezer (see FIG. 8 for the ligand bound and non-ligand bound state of the A1/GPIbα polypeptide). […]

T4 sequence (P04275 1262-1466): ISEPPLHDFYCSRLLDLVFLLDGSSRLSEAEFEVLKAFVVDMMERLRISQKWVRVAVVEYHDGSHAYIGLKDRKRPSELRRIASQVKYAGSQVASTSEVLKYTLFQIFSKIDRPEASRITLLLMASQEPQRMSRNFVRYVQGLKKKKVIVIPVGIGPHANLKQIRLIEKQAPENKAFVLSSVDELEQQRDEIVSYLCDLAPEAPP
T4 sequence (P07359 17-306): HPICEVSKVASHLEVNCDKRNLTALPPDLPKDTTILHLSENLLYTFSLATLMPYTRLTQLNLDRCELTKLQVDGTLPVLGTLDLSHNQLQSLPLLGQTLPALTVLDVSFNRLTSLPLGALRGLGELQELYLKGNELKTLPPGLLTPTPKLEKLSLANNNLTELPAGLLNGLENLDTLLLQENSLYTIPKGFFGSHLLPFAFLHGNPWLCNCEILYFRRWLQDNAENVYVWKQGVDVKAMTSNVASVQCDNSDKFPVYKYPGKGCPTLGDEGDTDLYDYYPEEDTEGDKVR

For the molecule `O=C(O)c1ccc(-c2ccc3cc(O)c(C45CC6CC(CC(C6)C4)C5)cc3c2)cc1` [CD 1530, 4-(6-Hydroxy-7-tricyclo[3.3.1.13,7]dec-1-yl-2-naphthalenyl) benzoic acid], the figures for the Kd in assay [1], in assay [2] and in assay [3] were 1500 nM, 150 nM and 2750 nM, respectively.

As to botrocetin, in assay [4], the “average dissociative/unbinding force for the A1/GPIbα interaction” value was “increased the average dissociative/unbinding force”. Turning to ristocetin, the “average dissociative/unbinding force for the A1/GPIbα interaction” value in assay [4] is reported as “increased the average dissociative/unbinding force”.
